From PMC12486152, “Design, modular synthesis and screening of 58 shape-diverse 3-D fragments” (Chemical Science, 2025) come the findings set out here.

Each structure is given as a SMILES string.

The target of this test is T1, N-acetylglucosaminyltransferase V (MGATV) (Homo sapiens, UniProt Q09328).
T1 construct: gene MGAT5
As to the kind of experiment: X-ray crystal structure by soaking; also thermal shift, STD NMR and enzyme (UDP-Glo) inhibition (IC50, n = […]). In kind it is biochemical.

T1 sequence (Q09328 214-741): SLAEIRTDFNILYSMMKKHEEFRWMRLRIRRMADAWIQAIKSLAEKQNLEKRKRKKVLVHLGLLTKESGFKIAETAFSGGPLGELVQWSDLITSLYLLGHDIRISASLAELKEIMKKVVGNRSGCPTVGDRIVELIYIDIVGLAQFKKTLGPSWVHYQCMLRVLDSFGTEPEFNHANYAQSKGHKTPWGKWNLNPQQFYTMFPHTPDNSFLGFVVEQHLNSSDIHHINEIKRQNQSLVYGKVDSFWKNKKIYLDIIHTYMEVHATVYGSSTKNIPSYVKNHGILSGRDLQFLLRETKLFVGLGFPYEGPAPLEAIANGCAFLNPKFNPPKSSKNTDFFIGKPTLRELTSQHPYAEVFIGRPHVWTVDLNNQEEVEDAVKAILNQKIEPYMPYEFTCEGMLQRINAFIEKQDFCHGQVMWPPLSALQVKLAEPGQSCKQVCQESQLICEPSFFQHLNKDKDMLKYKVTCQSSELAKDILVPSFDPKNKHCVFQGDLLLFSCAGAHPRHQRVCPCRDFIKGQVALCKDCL

The term IC50 denotes the concentration that gives 50% inhibition. With `CC(=O)N1CCCC(C(=O)O)(c2ccc(C)cc2)C1` (racemic) [8p], the IC50 was approximately 4.4 mM.
